ChEMBL document CHEMBL4418285, “1-cyano-pyrrolidine compounds as usp30 inhibitors” (2018)

Experiments:
[1] = target: T1, Ubiquitin carboxyl-terminal hydrolase 30 (Homo sapiens, UniProt Q70CQ3); test: Inhibition of human USP30 catalytic domain (57 to 517 residues) using ubiquitin-rhodamine 110 as substrate preincubated for 30 min followed by substrate addition and measured after 2 hrs by fluorescence intensity kinetic assay
T1 sequence (Q70CQ3 whole entry): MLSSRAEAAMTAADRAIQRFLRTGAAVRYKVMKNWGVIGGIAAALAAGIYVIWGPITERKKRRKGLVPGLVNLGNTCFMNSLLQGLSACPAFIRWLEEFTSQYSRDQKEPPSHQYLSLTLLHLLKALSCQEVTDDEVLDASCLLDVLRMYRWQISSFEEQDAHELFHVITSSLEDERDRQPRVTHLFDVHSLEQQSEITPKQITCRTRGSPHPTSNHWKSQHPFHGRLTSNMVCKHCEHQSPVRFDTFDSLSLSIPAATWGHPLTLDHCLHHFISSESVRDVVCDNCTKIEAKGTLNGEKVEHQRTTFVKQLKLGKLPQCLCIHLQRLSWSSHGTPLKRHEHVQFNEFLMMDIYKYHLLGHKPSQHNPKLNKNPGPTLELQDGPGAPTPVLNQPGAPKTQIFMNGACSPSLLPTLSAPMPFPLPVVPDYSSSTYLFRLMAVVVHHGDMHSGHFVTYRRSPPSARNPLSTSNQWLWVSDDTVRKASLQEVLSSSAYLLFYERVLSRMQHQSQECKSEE

[2] = target: T1, Ubiquitin carboxyl-terminal hydrolase 30; test: Inhibition of untagged human USP30 catalytic domain (57 to 517 residues) expressed in Escherichia coli using TAMRA labeled ubiquitin peptide as substrate preincubated for 30 min followed by substrate addition and measured after 2 hrs by fluorescence polarization assay

SMILES | IC50 [1] [nM] | IC50 [2] [nM]
N#CN1CC[C@@H](NC(=O)c2ccc(N3CCOCC3)cc2)C1 | 100 to 1000 | –
N#CN1C[C@H]2CCN(C(=O)Nc3cc(Cl)ccc3F)[C@H]2C1 | – | 100 to 1000
N#Cc1ccc(NC(=O)N2CC[C@@H]3CN(C#N)C[C@@H]32)c(F)c1 | – | 100 to 1000
N#CN1C[C@H]2CCN(C(=O)N3CCc4ccccc43)[C@H]2C1 | 1000 to 10000 | –
COc1cc(-c2cc(C(=O)N(C)[C@@H]3CCN(C#N)C3)on2)ccn1 | 100 to 1000 | –
